From patent publication US5068412A, “(2R,3S,4S)-α-(carboxycyclopropyl)glycine” (Suntory Limited, priority 1988, dated 1991)
Like-named read-outs stand apart in the source and are kept apart here.

What was measured:
[1] = tested on: motoneurones of isolated newborn rat spinal cord (NMDA type receptor); settings: newborn rat spinal cord preparation; from Japanese Patent Application No. 129626/88; cited from earlier work
[2] = tested on: motoneurones of isolated newborn rat spinal cord (NMDA type receptor); test: depolarizing activity test, isolated newborn rat spinal cord (potential changes in motoneurones recorded from ventral root); settings: for minimal effective concentration: read-out: Minimum effective concentration; for activity in the presence of 2-APV or Mg++: measured in the presence of 2APV or Mg++; for Minimum effective concentration, relative activity: relative to L-Glu = 1; for type of activity: spinal cord of a rat; for depolarizing activity, times as potent as L-glutamic acid: rat spinal cord, relative to L-glutamic acid
Experimental: The methods used for the electrophysiological experiment in the isolated newborn rat spiral cord were essentially similar to those described by Ohtsuka et al. (Nature, 252, 733-734, 1974). The potential changes generated in the motoneurones induced by L-glutamate analogues, namely, (2R,3S,4S)-α-(carboxycyclopropyl)glycine (1) of this invention and one of the stereoisomers, (2S,3R,4S)-α-(carboxycyclopropyl)-glycine (2) were recorded extracellularly from the ventral root with a suction electrode.

[3] = Fowden et al., Phytochemistry, 8, 437, 1969; cited from earlier work
[4] = isolated newborn rat spinal cord, depolarization recorded extracellularly from ventral root

Row | SMILES | minimal effective concentration [2, 4] [µM] | activity in the presence of 2-APV or Mg++ [2] | Minimum effective concentration, relative activity [2] | type of activity [2] | effects caused [3] | other results
1 | N[C@H](C(=O)O)[C@@H]1C[C@@H]1C(=O)O [(2), (2S,3R,4S)-α-(carboxycyclopropyl)glycine] | 1 | activity disappeared | 100 | potent NMDA-type depolarization |  | depolarizing activity, times more potent than L-glutamate [1]: about 100 times
2 | N[C@H](C(=O)O)[C@H]1C[C@H]1C(=O)O [(2S,3S,4R)-α-(carboxycyclopropyl)glycine] |  |  |  |  | hypoglycemia and amesis | 
3 | N[C@@H](CCC(=O)O)C(=O)O [L-Glu, L-glutamic acid] |  |  | 1 |  |  | minimal effective concentration ([2]; Rattus norvegicus): 100 µM
4 | N[C@@H](C(=O)O)[C@H]1C[C@@H]1C(=O)O [Compound (1), (2R,3S,4S)-α-(carboxycyclopropyl)glycine] | 0.3 | activity disappears | 300 | N-methyl-D-aspartic acid (NMDA) like activity |  | depolarizing activity, times as potent as L-glutamic acid [2]: 300 times; depolarizing activity, times as potent as L-glutamic acid ([2]; listed as (2R,3S,4S)-α-(carboxycyclopropyl)glycine): more than 300 times; depolarizing activity compared with NMDA ([2]; relative to NMDA): much more potent than NMDA; depolarizing activity, times as potent as compound (2) ([2]; relative to compound (2)): 3 times
5 | N[C@H](C(=O)O)[C@H]1C[C@@H]1C(=O)O [(2S,3S,4S)-α-(carboxycyclopropyl)glycine] |  |  |  |  | hypoglycemia and amesis | 
